PMC10823514, “Target Identification of a Class of Pyrazolone Protein Aggregation Inhibitor Therapeutics for Amyotrophic Lateral Sclerosis” (ACS Central Science, 2023)
Entries after “also recorded” stand apart in the source; their conditions may differ. Where two headings read alike, the source gives them in different places.

Experiments:
PC12 SOD1^G93A cells [1] = test: Neuroprotection against MG-132-induced toxicity in PC12 cells expressing mutant SOD1^G93A (calcein-AM viability); assay type: cell-based; details: Rattus norvegicus, PC-12, MG-132-induced toxicity, inactive photoreactive controls, read-out: EC50
Protocol: With this information in hand, we implemented a phenotypic drug discovery approach to identify a novel therapeutic for treating ALS. The study employed a rat PC12 cell-based assay that expresses SOD1^G93A mutation for screening a chemical library of more than 50,000 compounds to identify promising hits (Figure 1 compounds 3 and 4). The hits are based on attenuating proteasome inhibitor MG-132-induced SOD1^G93A cellular toxicity.
Viability EC50 values were determined according to the previously reported assay procedure.[43] Briefly, PC12 cells were seeded at 15,000 cells/well in 96-well plates, and the medium was changed to remove the doxycycline 4 days prior to compound addition. Compounds were assayed in 12-point dose–response experiments to determine the potency and efficacy. The highest compound concentration tested was 32 μM, which was decreased by half with each subsequent dose. After a 24 h incubation with the analytes, MG-132 (400 nM) was added and the cells were incubated at 37 °C for 24 h. The cells were washed twice with PBS. Calcein-AM was added at a final concentration of 1 μM for 20 min at room temperature, and the fluorescence intensity was read in a POLARstar fluorescence plate reader (BMG). EC50 values were determined by standardizing fluorescent signal to DMSO treated controls. […] The presented data represent the mean average of duplicate experiments.

[2] = target: T1, 25 kDa protein band in PC12 SOD1^G93A cells (Rattus norvegicus, UniProt P62260); test: Competition of PRAPP photoaffinity labeling of the 25 kDa band in PC12-SOD1^G93A cells; assay type: binding; details: for concentration-dependent disappearance of the 25 kDa protein band in competition with PRAPP: scenario 1
T1 construct: we identified a 25 kDa covalently modified protein band in the PC12 SOD1^G93A cell line; endogenous in cells; host or cells: PC12-SOD1^G93A cells (live-cell UV photolabeling, then lysis)
T1 sequence (P62260 1-255): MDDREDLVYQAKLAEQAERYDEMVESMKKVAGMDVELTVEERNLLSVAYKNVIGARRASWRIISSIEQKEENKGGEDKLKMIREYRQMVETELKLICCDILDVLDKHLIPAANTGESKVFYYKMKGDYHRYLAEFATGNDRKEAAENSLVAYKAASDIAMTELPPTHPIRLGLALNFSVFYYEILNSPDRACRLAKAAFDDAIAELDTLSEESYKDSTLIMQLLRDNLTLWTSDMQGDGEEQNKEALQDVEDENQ
Protocol: PC12-SOD1^G93A cells were cultured and grown to 90% confluency (in 6-well plates) and washed once with PBS followed by the addition of serum medium containing the appropriate analyte at the indicated concentrations. Three incubation scenarios were studied (at 37 °C): Scenario 1) 12 h preincubation with PRAPP in the absence of MG-132; Scenario 2) 12 h preincubation with PRAPP in the absence of MG-132 followed by an additional 24 h incubation (control); and Scenario 3) 12 h preincubation with PRAPP followed by the addition of MG-132 (100 nM) and an additional 24 h incubation. After incubation, the medium was discarded and cells were washed with PBS (1 × 300 μL). Fresh serum-free medium was added, and the cells were irradiated with UV light (312 nm, 120 V, 60 Hz, 0.2 A [Spectroline model EB-160C], distance ∼4 cm) for 15 min. The medium was removed, cells were washed with PBS (2 × 500 μL), and 200 μL of lysis buffer containing Tris HCl (25 mM, pH 7.6), NaCl (150 mM), 1% NP40, 1% sodium deoxycholate, 0.1% SDS, and protease inhibitor cocktail (Sigma-Aldrich, 1:100 v/v) was added to each well. Complete lysis was observed by a microscope after 10 min at 4 °C with agitation. Each lysate was centrifuged at 4 °C for 5 min at 13,000 rpm, and the resulting supernatant was concentrated with a centrifugal filter (Amicon Ultra Centrifugal Filters 3K cutoff, Millipore), normalized to 1.0 mg/mL by the Bradford assay, and analyzed immediately or stored at −80 °C for subsequent analysis.
In a darkened (wrapped with aluminum foil) Eppendorf tube, each lysate (30 μL [30 μg]) was incubated with 10 μL of the freshly prepared “click” premix containing CuSO4 (5 mM), sodium ascorbate (5 mM), TBTA (200 μM), and N3–Alexa-647 (50 μM) were added to PBS (50 mM, pH 7.4). The corresponding final concentrations within the lysate click incubation were: CuSO4 (1.25 mM), sodium ascorbate (1.25 mM), TBTA (50 μM), and N3–Alexa-647 (12.5 μM). The mixture was vortexed briefly and incubated for 1.5 h at 37 °C in the dark. NuPAGE LDS sample loading buffer (4 × 13 μL) was added, and the mixture was denatured in boiling water for 10 min. SDS-PAGE was performed on Novex Bis-Tris gel 4–12% with MES SDS running buffer (90 V constant for 30 min followed by 100 V for 90 min; load volume = 25 μL). Protein standards that gave appropriate visible and fluorescent bands for our application included the BioRad Precision Plus All Blue Protein Standard and Novex Pre-Stained Protein Standard. In-gel fluorescence was monitored (excitation λ = 635 nm; emission λ = 670 nm) using a Typhoon 9400 (GE Healthcare) fluorimager. Densitometric analysis and image refinement were carried out as needed using ImageJ software (NIH, open source). The contrast and brightness of images were modified using ImageJ and/or Microsoft Word to enhance visualization for publication purposes.

14-3-3-E = target: T2, 14-3-3-E (Homo sapiens, UniProt P62258); test: Fluorescent thermal shift assay (FTSA) with 14-3-3-E; assay type: binding; details: SYPRO orange
T2 construct: His-tag (TEV-cleavable) (cleaved yes); host or cells: E. coli (BL21)
T2 sequence (P62258 1-255): T1 sequence (P62260 1-255)
Protocol: His-tagged 14-3-3-E, B, and H plasmids were purchased from Addgene (plasmid ID# 31562, 39128, and 38814, respectively). E. coli (BL21) were transformed with extracted plasmids via heat shock and plated on selected media. Individual colonies were selected, grown, and sequenced to confirm gene presence. 1 L cultures were grown to an OD600 of 0.6 at 37 °C and 220 rpm. Protein expression was induced with 1 mM IPTG and expressed for 12 h at 100 rpm and room temperature (approximately 25 °C). Cells were spun down at 4000 rpm for 15 min at 4 °C and resuspended in lysis buffer containing 50 mM Tris (7.4), 150 mM NaCl, 0.08% DDM, 5 mM imidazole, and 5% glycerol (with an EDTA-free complete mini protease inhibitor cocktail). Cells were lysed via sonication, and the lysate was separated from cell debris by centrifugation at 15,000 rpm, 4 °C, for 45 min. The His-tagged protein was purified using QIAGEN Ni-NTA superflow columns, and the His-tag was removed with TEV protease. His-tag-removed proteins were further purified by size exclusion chromatography. His tag removal and size exclusion chromatography purification were done at the Northwestern University Protein Production core. 14-3-3-Q and 14-3-3-G proteins were purchased from Abchem (catalog numbers ab85270 and ab53869, respectively).
All of the FTSA experiments were conducted in HEPES buffer (60 mM HEPES, 150 mM NaCl, pH 7.4). A DMSO balanced 8-point dilution series of the compound in HEPES buffer was prepared in a 96-well assay plate (200, 100, 50, 25, 12.5, 6.25, 3.125, and 0 μM). Then, a 5 μL volume of the dilution series was transferred to a 384-well PCR plate using a multichannel pipet, and the plate was centrifuged at 1000 rpm for 2 min (the plate was covered with an adhesive aluminum seal). The protein sample was premixed at a concentration of 0.04 μg/μL with a 5X concentration of SYPRO orange in HEPES buffer, and a 5 μL aliquot was added to the compound wells. The plate was covered with an optical adhesive seal and was shaken for 2 min, followed by centrifugation at 1000 rpm for 2 min. The thermal scan was performed from 20 to 90 °C with a temperature gradient of 0.5 °C/min. The fluorescence was measured on a Bio-Rad CFX384 real-time PCR instrument.

PC12 SOD1^G93A cells [3] = details: neuroprotection against MG-132-induced SOD1^G93A toxicity in PC12 cells, cited from earlier work
[4] = tested on: 25 kDa covalently modified band in HAP1 cells; test: Photoaffinity labeling with HAP1 wild-type and Hsp27 knockout cells; assay type: binding; details: wild-type (WT) HAP1 cells
From the text: First, we conducted photoaffinity labeling studies with wild-type (WT) HAP1 cells to verify the existence of the 25 kDa covalent modification that we observed in PC12 cells.
Figure 7 Photoaffinity Labeling Experiments with HAP1 cells. […] The nonspecific background modifications remain unchanged with increasing concentration of P3, further confirming the 25 kDa covalently modified band as a true target; (B) comparison of the photoaffinity labeling experiments with HAP1 wild-type (WT) cells and Hsp27 knockout (KO) cells at 15 μM PRAPP concentration.

[5] = parameters: method as in PMID 23828940; details: cell lysate, original CETSA protocol; cited from earlier work
[6] = hits and leads of the authors' earlier work, read-out: EC50

C#CCN(Cc1c(F)c(F)c(N=[N+]=[N-])c(F)c1F)Cc1cc(=O)n(C(C)=O)n1C(C)=O [IPC1, 1,1′-(5-(((4-Azido-2,3,5,6-tetrafluorobenzyl)(prop-2-yn-1-yl)amino)methyl)-3-oxo-1H-pyrazole-1,2(3H)-diyl)bis(ethan-1-one)]
EC50 (PC12 SOD1^G93A cells [1]): > 16000 nM

C#CCNCc1c(F)c(F)c(N=[N+]=[N-])c(F)c1F [IPC2, N-(4-Azido-2,3,5,6-tetrafluorobenzyl)prop-2-yn-1-amine]
EC50 (PC12 SOD1^G93A cells [1]): > 16000 nM

CC(Oc1cc(C(F)(F)F)cc(C(F)(F)F)c1)C1CC(=O)CC(=O)C1 (stereo not drawn) [P1]
concentration-dependent disappearance of the 25 kDa protein band in competition with PRAPP ([2]; 30 μM PRAPP): not compete out the 25 kDa covalently modified band in a concentration -dependent manner; also recorded: did not show a quantifiable concentration-dependent disappearance
25 kDa band intensity in competition with PRAPP ([2]; 480 μM P1 concentration): slight reduction of the 25 kDa band intensity
Tm shift (ΔTm) (14-3-3-E): did not show a Tm shift
EC50 (PC12 SOD1^G93A cells [3]; [6]): 300 nM

CN(Cc1cc(Cl)cc(Cl)c1)Cc1cc(=O)[nH][nH]1 [P3]
competitor to PRAPP ratio at complete disappearance of the band ([2]; 30 μM PRAPP): 32
EC50 ([2]; 30 μM PRAPP, scenario 1, n = 2, read-out: EC50 for the competition with PRAPP (25 kDa band intensity)): 26700 nM
competition of PRAPP labeling, band 1 around 25 kDa [4]: concentration-dependent disappearance
EC50 (PC12 SOD1^G93A cells [3]; leads of the authors' earlier work, read-out: EC50 (NP = neuroprotection)): 400 nM

O=C1CC(=O)CC(c2ccc(F)cc2)C1 [compound 3]
EC50 (PC12 SOD1^G93A cells [3]; [6]): 800 nM

Cc1cc(SCc2cc(=O)[nH][nH]2)c(C)cc1Cl [compound 4]
EC50 (PC12 SOD1^G93A cells [3]; [6]): 400 nM

CC1=NN(c2ccccc2)C(=O)C1 [edaravone, reference compound]
concentration-dependent disappearance of the 25 kDa protein band in competition with PRAPP ([2]; 30 μM PRAPP): did not show a quantifiable concentration-dependent disappearance

CN(Cc1cnc2nc(N)nc(N)c2n1)c1ccc(C(=O)N[C@@H](CCC(=O)O)C(=O)O)cc1 [methotrexate]
drug concentration of maximum response in ITDR CETSA [5]: 100 to 250 µM

Cc1nc2ccc(CN(C)c3ccc(C(=O)N[C@@H](CCC(=O)O)C(=O)O)s3)cc2c(=O)[nH]1 [raltitrexed]
drug concentration of maximum response in ITDR CETSA [5]: 100 to 250 µM
